Assay results reported in the supplement of paper PMC10307832.

How the values were obtained:
Assay in all cases: relative viability (nuclei count vs DMSO), 5 days (fraction); higher = more cells survive
XMD8-85 + Alpelisib = compound: CN1CCN(CC1)C2=CC(=C(C=C2)NC3=NC=C4C(=N3)N(C5=CC=CC=C5C(=O)N4C)C)OC [XMD8-85] + Cc1nc(NC(=O)N2CCC[C@H]2C(N)=O)sc1-c1ccnc(C(C)(C)C(F)(F)F)c1 [Alpelisib] (partner 2 µM)
How it was run: (§1)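 Five library-drug doses in √10 steps were combined with a fixed anchor-drug dose, or a single drug was given alone, by pin tool to lung cancer cell lines in 1536-well plates the day after seeding. Nuclei were stained and counted after 5 days. Relative viability is the nuclei count in treated wells over that in vehicle wells, taken as the median of duplicate plates.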

XMD8-85 + Pemetrexed = compound: CN1CCN(CC1)C2=CC(=C(C=C2)NC3=NC=C4C(=N3)N(C5=CC=CC=C5C(=O)N4C)C)OC [XMD8-85] + Nc1nc2[nH]cc(CCc3ccc(C(=O)N[C@@H](CCC(=O)O)C(=O)O)cc3)c2c(=O)[nH]1 [Pemetrexed] (partner 0.2 µM)
How it was run: as §1

4EGI-1 + Trametinib = compound: O=C(O)C(Cc1ccccc1[N+](=O)[O-])=NNc1nc(-c2ccc(Cl)c(Cl)c2)cs1 (mixture of isomers) [4EGI-1] + CC(=O)Nc1cccc(-n2c(=O)n(C3CC3)c(=O)c3c(Nc4ccc(I)cc4F)n(C)c(=O)c(C)c32)c1 [Trametinib] (partner 0.02 µM)
How it was run: as §1

4EGI-1 + Pemetrexed = compound: O=C(O)C(Cc1ccccc1[N+](=O)[O-])=NNc1nc(-c2ccc(Cl)c(Cl)c2)cs1 (mixture of isomers) [4EGI-1] + Nc1nc2[nH]cc(CCc3ccc(C(=O)N[C@@H](CCC(=O)O)C(=O)O)cc3)c2c(=O)[nH]1 [Pemetrexed] (partner 0.2 µM)
How it was run: as §1

NCI-H1792 was tested, and the relative viability (XMD8-85 + Alpelisib; first compound 0.08 µM) was 0.627, the relative viability (XMD8-85 + Alpelisib; first compound 0.253 µM) was 0.642 and the relative viability (XMD8-85 + Alpelisib; first compound 2.53 µM) was 0.562. It also gave a relative viability (XMD8-85 + Alpelisib; first compound 8 µM) of 0.723, a relative viability (XMD8-85 + Pemetrexed; first compound 0.253 µM) of 0.439 and a relative viability (XMD8-85 + Pemetrexed; first compound 0.8 µM) of 0.889. It also gave a relative viability (XMD8-85 + Pemetrexed; first compound 2.53 µM) of 0.924, a relative viability (XMD8-85 + Pemetrexed; first compound 8 µM) of 0.818 and a relative viability (4EGI-1 + Trametinib; first compound 0.5 µM) of 0.524. The relative viability (4EGI-1 + Trametinib; first compound 1.581 µM) was 0.428, the relative viability (4EGI-1 + Trametinib; first compound 5 µM) was 0.359 and the relative viability (4EGI-1 + Trametinib; first compound 15.81 µM) was 0.479. The relative viability (4EGI-1 + Trametinib; first compound 50 µM) was 0.366, the relative viability (4EGI-1 + Pemetrexed; first compound 0.5 µM) was 1.05 and the relative viability (4EGI-1 + Pemetrexed; first compound 1.581 µM) was 0.952. For the same cell line, the relative viability (4EGI-1 + Pemetrexed; first compound 5 µM) was 0.833, the relative viability (4EGI-1 + Pemetrexed; first compound 15.81 µM) was 0.841 and the relative viability (4EGI-1 + Pemetrexed; first compound 50 µM) was 0.463.
